In ChEMBL document CHEMBL1127115, “Synthesis and antihypertensive activity of KC-399, a benzopyran K+ channel opener with long duration of action and less tachycardia” (Bioorg Med Chem Lett, 1993):

Tests used:
Assay type in all cases: functional
[1] = species: Rattus norvegicus; assay: Tested for effective concentration required to relax contraction induced by 30 mM KCl in rat aorta
[2] = system: Rattus norvegicus; assay: Mean blood pressure was determined in conscious male spontaneously hypertensive rats (SHR) at a dose of 0.03 mg/Kg
[3] = system: Rattus norvegicus; assay: Tested for antihypertensive activity in spontaneously hypertensive rats (SHR) as dose required to produce fall in mean blood pressure (MBP) by peroral administration
[4] = system: Rattus norvegicus; assay: Heart rate was determined in conscious male spontaneously hypertensive rats (SHR) at a dose of 0.03 mg/Kg dose
[5] = system: Rattus norvegicus; assay: Antihypertensive activity in spontaneously hypertensive rats (SHR) expressed as dose required to produce fall in mean blood pressure (MBP) by peroral administration
[6] = system: Rattus norvegicus; assay: Mean blood pressure was determined in conscious male spontaneously hypertensive rats (SHR) at a dose of 0.01 mg/Kg
[7] = system: Rattus norvegicus; assay: Heart rate was determined in conscious male spontaneously hypertensive rats (SHR) at a dose of 0.01 mg/Kg dose
[8] = system: Rattus norvegicus; assay: Tested for antihypertensive activity, duration of action at the dose of 0.03 mg/Kg was determined; ranges from 7-8h
[9] = system: Rattus norvegicus; assay: Mean blood pressure was determined in conscious male SHR at a dose of 0.1 mg/Kg
[10] = system: Rattus norvegicus; assay: Heart rate was determined in conscious male spontaneously hypertensive rats (SHR) at a dose of 0.3 mg/Kg
[11] = system: Rattus norvegicus; assay: Mean blood pressure was determined in conscious male spontaneously hypertensive rats (SHR) at a dose of 0.3 mg/Kg
[12] = system: Rattus norvegicus; assay: Heart rate was determined in conscious male spontaneously hypertensive rats (SHR) at a dose of 0.1 mg/Kg

| EC50 [1] [nM] | SMILES | Blood pressure [2] [mmHg] | Dose [3] [mg/kg] | Heart rate [4] [beats min-1] | Dose [5] [mg/kg] | Blood pressure [6] [mmHg] | Heart rate [7] [beats min-1] | Duration of action [8] [h] | Blood pressure [9] [mmHg] | Heart rate [10] [beats min-1] | Blood pressure [11] [mmHg] | Heart rate [12] [beats min-1] |
| --- | --- | --- | --- | --- | --- | --- | --- | --- | --- | --- | --- | --- |
| 0.3 | N#CCC/N=C(\S)C1=CC(CF)(CF)Oc2ccc([N+](=O)[O-])cc21 | 155 | 0.01 | 323 | 0.03 | 156 | 310 | 7 | – | – | – | – |
| 150 | CC1(C)Oc2ccc(C#N)cc2C(N2CCCC2=O)C1O (stereo unspecified) [CROMAKALIM] | – | – | – | – | – | – | – | – | – | – | – |
| – | CC1(C)Oc2ccc(C#N)cc2[C@@H](N2CCCC2=O)[C@@H]1O [LEVCROMAKALIM] | – | 0.1 | – | 0.3 | – | – | 7 | 146 | 313 | 153 | 318 |
